13 compounds from PMC11363325, “A Novel Prodrug Strategy Based on Reversibly Degradable Guanidine Imides for High Oral Bioavailability and Prolonged Pharmacokinetics of Broad-Spectrum Anti-influenza Agents” (ACS Central Science, 2024) can be followed below.

Structures can show the parent of a compound that is named as a salt. Bounds are passed on as bounds.

The EC50 is the midpoint of the concentration-response curve. High values mean weaker potency, low ones greater potency.

The first assay deals with rgA/Korea/09/2009Δ53–60(H275Y), A/H1N1(H275Y). More on the design: species or system BALB/c mice. The note with it: mouse, in vivo, po, 10 mg/kg.
For `CCC(CC)O[C@@H]1C=C(C(=O)O)C[C@H](NC(=N)N)[C@H]1NC(C)=O` [GOC·TFA, guanidino oseltamivir carboxylate], the survival rate result is on record as “all mice were eventually dead”.

The subject of a further assay is rgPR8(H275Y), A/Puerto Rico/8/1934 with the H275Y mutation in NA.
Details: not given
`CCC(CC)O[C@@H]1C=C(C(=O)O)C[C@H](N=C(N2C(=O)CC(C)C2=O)N2C(=O)CC(C)C2=O)[C@H]1NC(C)=O` (stereo partly drawn) [OSC-GCDI(M)] came in with an EC50 of 0.74 ± 0.05 µM.
`CCC(CC)O[C@@H]1C=C(C(=O)O)C[C@H](N=C(N2C(=O)[C@H]3CCCC[C@H]3C2=O)N2C(=O)[C@H]3CCCC[C@H]3C2=O)[C@H]1NC(C)=O` [OSC-GCDI(C)] had an EC50 of 0.49 ± 0.01 µM.
For the compound `CCC(CC)O[C@@H]1C=C(C(=O)O)C[C@H](N)[C@H]1NC(C)=O` [OSC, oseltamivir carboxylate, reference compound], the midpoint of the response, the EC50, lay at 13.7 ± 2.7 µM and the “resistance factor (RF), ratio of EC50 against rgPR8(H275Y) to wild-type rgPR8” value worked out at 274.
Turning to `CCC(CC)O[C@@H]1C=C(C(=O)O)C[C@H](N=C(N2C(=O)c3ccccc3C2=O)N2C(=O)c3ccccc3C2=O)[C@H]1NC(C)=O` [OSC-GCDI(P)], it took 0.48 ± 0.01 µM to reach a half-maximal effect (EC50).
For `CCC(CC)O[C@@H]1C=C(C(=O)O)C[C@H](N=C(N2C(=O)CCC2=O)N2C(=O)CCC2=O)[C@H]1NC(C)=O` [OSC-GCDI(S)], it took 0.99 ± 0.01 µM to reach a half-maximal effect (EC50).
Compound `CCC(CC)O[C@@H]1C=C(C(=O)O)C[C@H](N=C(N2C(=O)[C@H]3CC=CC[C@H]3C2=O)N2C(=O)[C@H]3CC=CC[C@H]3C2=O)[C@H]1NC(C)=O` [OSC-GCDI(Ce)] yielded an EC50 of 1.9 ± 0.1 µM.
Compound `NC12CC3CC(CC(C3)C1)C2` [AMT, Amantadine, reference compound] had an EC50 of over 100 µM.
On the same count and under the same terms, under `CCC(CC)O[C@@H]1C=C(C(=O)O)C[C@H](N=C(N2C(=O)CC(C)(C)C2=O)N2C(=O)CC(C)(C)C2=O)[C@H]1NC(C)=O` [OSC-GCDI(D)] stands 1.52 ± 0.2 µM.
With `CCC(CC)O[C@@H]1C=C(C(=O)O)C[C@H](NC(=N)N)[C@H]1NC(C)=O` [GOC, guanidino oseltamivir carboxylate, reference compound], the EC50 came out at 0.09 ± 0.01 µM and the “resistance factor (RF), ratio of EC50 against rgPR8(H275Y) to wild-type rgPR8” value is reported as 18.0.
Compound `CCC(CC)O[C@@H]1C=C(C(=O)O)C[C@H](N=C(N2C(=O)C3CCC(C)CC3C2=O)N2C(=O)C3CCC(C)CC3C2=O)[C@H]1NC(C)=O` (stereo partly drawn) [OSC-GCDI(CM)] yielded an EC50 of 1.2 ± 0.05 µM.
Still for that read-out and setting: under `CCCCC1CC(=O)N(C(=N[C@H]2CC(C(=O)O)=C[C@@H](OC(CC)CC)[C@@H]2NC(C)=O)N2C(=O)CC(CCCC)C2=O)C1=O` (stereo partly drawn) [OSC-GCDI(B)] stands 3.41 ± 0.01 µM; under `NC(=O)c1ncn([C@@H]2O[C@H](CO)[C@@H](O)[C@H]2O)n1` [RBV, Ribavirin, reference compound], 16.4 ± 0.45 µM.

The next assay concerns A/Korea/2785/2009 (H1N1) with the H275Y mutation in NA (KR2785).
Details: not given
Turning to `CCC(CC)O[C@@H]1C=C(C(=O)O)C[C@H](N=C(N2C(=O)CC(C)C2=O)N2C(=O)CC(C)C2=O)[C@H]1NC(C)=O` (stereo partly drawn) [OSC-GCDI(M)], a half-maximal response (EC50) required 4.61 ± 0.35 µM.
Still for that read-out and setting: next, `CCC(CC)O[C@@H]1C=C(C(=O)O)C[C@H](N=C(N2C(=O)[C@H]3CCCC[C@H]3C2=O)N2C(=O)[C@H]3CCCC[C@H]3C2=O)[C@H]1NC(C)=O` [OSC-GCDI(C)]: 5.91 ± 0.85 µM; `CCC(CC)O[C@@H]1C=C(C(=O)O)C[C@H](N)[C@H]1NC(C)=O` [OSC, oseltamivir carboxylate, reference compound]: 56.61 ± 0.3 µM; `CCC(CC)O[C@@H]1C=C(C(=O)O)C[C@H](N=C(N2C(=O)c3ccccc3C2=O)N2C(=O)c3ccccc3C2=O)[C@H]1NC(C)=O` [OSC-GCDI(P)]: 4.61 ± 0.35 µM.
Same read-out and setting: under `CCC(CC)O[C@@H]1C=C(C(=O)O)C[C@H](N=C(N2C(=O)CCC2=O)N2C(=O)CCC2=O)[C@H]1NC(C)=O` [OSC-GCDI(S)] stands 8.55 ± 2.15 µM; under `CCC(CC)O[C@@H]1C=C(C(=O)O)C[C@H](N=C(N2C(=O)[C@H]3CC=CC[C@H]3C2=O)N2C(=O)[C@H]3CC=CC[C@H]3C2=O)[C@H]1NC(C)=O` [OSC-GCDI(Ce)], 13.22 ± 0.1 µM; under `NC12CC3CC(CC(C3)C1)C2` [AMT, Amantadine, reference compound], over 100 µM.
As to `CCC(CC)O[C@@H]1C=C(C(=O)O)C[C@H](N=C(N2C(=O)CC(C)(C)C2=O)N2C(=O)CC(C)(C)C2=O)[C@H]1NC(C)=O` [OSC-GCDI(D)], the EC50 was found to be 9.25 ± 2.4 µM.
Still for that read-out and setting: next, `CCC(CC)O[C@@H]1C=C(C(=O)O)C[C@H](NC(=N)N)[C@H]1NC(C)=O` [GOC, guanidino oseltamivir carboxylate, reference compound]: 0.78 ± 0.01 µM.
As to `CCC(CC)O[C@@H]1C=C(C(=O)O)C[C@H](N=C(N2C(=O)C3CCC(C)CC3C2=O)N2C(=O)C3CCC(C)CC3C2=O)[C@H]1NC(C)=O` (stereo partly drawn) [OSC-GCDI(CM)], the EC50 came to 14 ± 5.15 µM.
Same read-out and setting: next, `CCCCC1CC(=O)N(C(=N[C@H]2CC(C(=O)O)=C[C@@H](OC(CC)CC)[C@@H]2NC(C)=O)N2C(=O)CC(CCCC)C2=O)C1=O` (stereo partly drawn) [OSC-GCDI(B)]: 17.6 ± 2.9 µM.
With `NC(=O)c1ncn([C@@H]2O[C@H](CO)[C@@H](O)[C@H]2O)n1` [RBV, Ribavirin, reference compound], the EC50 was 18.3 ± 1.3 µM.

A further assay concerns rgA/Korea/09/2009Δ53–60 with the H275Y mutation in NA (rgKR09).
Details: not given
`CCC(CC)O[C@@H]1C=C(C(=O)O)C[C@H](N=C(N2C(=O)CC(C)C2=O)N2C(=O)CC(C)C2=O)[C@H]1NC(C)=O` (stereo partly drawn) [OSC-GCDI(M)] yielded an EC50 of 1.96 ± 0.15 µM.
Regarding `CCC(CC)O[C@@H]1C=C(C(=O)O)C[C@H](N=C(N2C(=O)[C@H]3CCCC[C@H]3C2=O)N2C(=O)[C@H]3CCCC[C@H]3C2=O)[C@H]1NC(C)=O` [OSC-GCDI(C)], the response was half-maximal at 3.7 ± 0.5 µM (EC50).
Still for that read-out and setting: under `CCC(CC)O[C@@H]1C=C(C(=O)O)C[C@H](N)[C@H]1NC(C)=O` [OSC, oseltamivir carboxylate, reference compound] stands 25.9 ± 0.65 µM; under `CCC(CC)O[C@@H]1C=C(C(=O)O)C[C@H](N=C(N2C(=O)c3ccccc3C2=O)N2C(=O)c3ccccc3C2=O)[C@H]1NC(C)=O` [OSC-GCDI(P)], 4.61 ± 0.05 µM.
Consider `CCC(CC)O[C@@H]1C=C(C(=O)O)C[C@H](N=C(N2C(=O)CCC2=O)N2C(=O)CCC2=O)[C@H]1NC(C)=O` [OSC-GCDI(S)], for which the EC50 stood at 2.2 ± 0.1 µM.
Still for that read-out and setting: under `CCC(CC)O[C@@H]1C=C(C(=O)O)C[C@H](N=C(N2C(=O)[C@H]3CC=CC[C@H]3C2=O)N2C(=O)[C@H]3CC=CC[C@H]3C2=O)[C@H]1NC(C)=O` [OSC-GCDI(Ce)] stands 5.21 ± 0.02 µM; under `NC12CC3CC(CC(C3)C1)C2` [AMT, Amantadine, reference compound], over 100 µM.
Regarding `CCC(CC)O[C@@H]1C=C(C(=O)O)C[C@H](N=C(N2C(=O)CC(C)(C)C2=O)N2C(=O)CC(C)(C)C2=O)[C@H]1NC(C)=O` [OSC-GCDI(D)], the EC50 worked out at 4.37 ± 1.1 µM.
Turning to `CCC(CC)O[C@@H]1C=C(C(=O)O)C[C@H](NC(=N)N)[C@H]1NC(C)=O` [GOC, guanidino oseltamivir carboxylate, reference compound], the EC50 is 0.11 ± 0.01 µM.
In the case of `CCC(CC)O[C@@H]1C=C(C(=O)O)C[C@H](N=C(N2C(=O)C3CCC(C)CC3C2=O)N2C(=O)C3CCC(C)CC3C2=O)[C@H]1NC(C)=O` (stereo partly drawn) [OSC-GCDI(CM)], a half-maximal response (EC50) required 4.43 ± 0.25 µM.
On the same count and under the same terms, next, `CCCCC1CC(=O)N(C(=N[C@H]2CC(C(=O)O)=C[C@@H](OC(CC)CC)[C@@H]2NC(C)=O)N2C(=O)CC(CCCC)C2=O)C1=O` (stereo partly drawn) [OSC-GCDI(B)]: 12.9 ± 0.65 µM; `NC(=O)c1ncn([C@@H]2O[C@H](CO)[C@@H](O)[C@H]2O)n1` [RBV, Ribavirin, reference compound]: 15.79 ± 0.15 µM.
